Source: US11731976B2, “3-(ethoxydifluoromethyl)-6-(5-fluoro-6-(2,2,2-trifluoroethoxy)pyridin-3-yl)-[1,2,4]triazolo[4,3-a]pyridine as an ion channel modulator” (Praxis Precision Medicines, Inc., priority 2018, dated 2023)

What was measured:
human NaV1.6 (hNaV1.6) = biological target: T1, human NaV1.6 (hNaV1.6) (Homo sapiens, UniProt Q9UQD0); assay: Modulation of late sodium current (INaL), PatchXpress electrophysiology, HEK-293 cells expressing hNaV1.6; format: cell-based; settings: HEK293, late current evoked by 300 nM ATX-II, read-out: NaV 1.6 Assay Data: percent inhibition of INaL at hNaV1.6
T1 construct: expressed in transfected cells; host or cells: HEK-293
T1 sequence (Q9UQD0 whole entry): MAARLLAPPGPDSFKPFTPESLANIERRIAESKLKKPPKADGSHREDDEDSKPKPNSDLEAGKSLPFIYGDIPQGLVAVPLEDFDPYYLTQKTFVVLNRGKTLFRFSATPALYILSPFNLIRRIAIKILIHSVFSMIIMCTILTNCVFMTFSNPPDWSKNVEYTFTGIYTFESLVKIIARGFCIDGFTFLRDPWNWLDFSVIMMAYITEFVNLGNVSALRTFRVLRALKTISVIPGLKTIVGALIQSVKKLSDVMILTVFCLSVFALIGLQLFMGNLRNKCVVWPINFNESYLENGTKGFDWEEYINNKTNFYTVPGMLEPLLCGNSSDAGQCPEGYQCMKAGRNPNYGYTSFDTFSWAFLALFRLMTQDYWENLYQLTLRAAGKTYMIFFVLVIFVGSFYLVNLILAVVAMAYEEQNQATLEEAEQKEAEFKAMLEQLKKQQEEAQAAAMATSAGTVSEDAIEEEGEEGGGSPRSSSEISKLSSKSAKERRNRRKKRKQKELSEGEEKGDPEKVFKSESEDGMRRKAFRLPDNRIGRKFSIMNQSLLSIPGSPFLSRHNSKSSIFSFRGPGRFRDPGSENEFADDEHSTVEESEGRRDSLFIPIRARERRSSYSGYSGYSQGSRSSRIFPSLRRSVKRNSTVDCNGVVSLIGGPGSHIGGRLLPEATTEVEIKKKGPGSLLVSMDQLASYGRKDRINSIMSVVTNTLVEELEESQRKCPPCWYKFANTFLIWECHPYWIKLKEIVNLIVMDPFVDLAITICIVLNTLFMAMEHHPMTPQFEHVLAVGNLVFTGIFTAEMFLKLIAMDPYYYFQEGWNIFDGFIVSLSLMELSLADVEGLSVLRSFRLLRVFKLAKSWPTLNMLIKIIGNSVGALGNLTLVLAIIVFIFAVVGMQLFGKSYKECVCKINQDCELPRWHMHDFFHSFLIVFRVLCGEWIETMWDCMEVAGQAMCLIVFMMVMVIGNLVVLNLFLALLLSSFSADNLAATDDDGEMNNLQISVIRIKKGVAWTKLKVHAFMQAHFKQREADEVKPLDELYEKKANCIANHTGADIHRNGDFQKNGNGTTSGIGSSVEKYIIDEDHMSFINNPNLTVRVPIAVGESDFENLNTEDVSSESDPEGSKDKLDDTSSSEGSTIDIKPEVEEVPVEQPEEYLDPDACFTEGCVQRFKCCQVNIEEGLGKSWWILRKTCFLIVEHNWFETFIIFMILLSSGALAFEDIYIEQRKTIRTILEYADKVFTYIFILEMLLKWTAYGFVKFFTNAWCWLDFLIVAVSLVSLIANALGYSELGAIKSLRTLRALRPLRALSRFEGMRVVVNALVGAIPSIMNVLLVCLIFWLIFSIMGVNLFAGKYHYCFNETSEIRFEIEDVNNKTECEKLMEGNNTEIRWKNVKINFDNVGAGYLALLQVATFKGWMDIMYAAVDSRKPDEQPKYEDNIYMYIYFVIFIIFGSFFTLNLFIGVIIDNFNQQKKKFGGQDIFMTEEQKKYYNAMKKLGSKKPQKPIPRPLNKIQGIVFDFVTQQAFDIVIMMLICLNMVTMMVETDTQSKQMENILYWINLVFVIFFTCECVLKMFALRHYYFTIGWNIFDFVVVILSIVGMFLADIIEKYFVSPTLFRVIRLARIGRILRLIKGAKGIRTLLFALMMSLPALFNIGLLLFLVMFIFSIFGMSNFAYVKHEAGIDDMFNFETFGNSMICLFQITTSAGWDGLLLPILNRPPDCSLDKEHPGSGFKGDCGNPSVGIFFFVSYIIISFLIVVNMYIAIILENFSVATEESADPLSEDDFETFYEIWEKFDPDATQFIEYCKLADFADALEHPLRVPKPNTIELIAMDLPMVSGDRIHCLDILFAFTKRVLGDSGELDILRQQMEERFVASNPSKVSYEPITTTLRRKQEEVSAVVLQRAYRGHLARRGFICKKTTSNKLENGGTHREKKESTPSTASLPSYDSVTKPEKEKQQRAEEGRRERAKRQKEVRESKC
Method in brief: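 PatchXpress automated patch clamp on HEK-293 cells expressing recombinant hNaV1.6; late current enhanced with 300 nM ATX-II. INaL evoked by 200 ms steps to 0 mV from about −120 mV at 0.1 Hz, measured as mean amplitude over the final 20 ms. Percent steady-state inhibition versus control current.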

[1] = biological target: T2, human NaV 1.2 (h NaV 1.2) (Homo sapiens, UniProt Q99250); assay: Modulation of late sodium current (INaL), PatchXpress electrophysiology, HEK-293 cells expressing hNaV1.2; format: cell-based; settings: HEK293, read-out: NaV 1.2 Assay Data: percent inhibition of INaL at hNaV1.2
T2 construct: expressed in transfected cells; host or cells: HEK-293

Male CD-1 mice = assay: Maximal Electroshock induced Seizure (MES) assay in mice; format: in vivo, mouse; settings: 35% HPCD, recorded up to 60 seconds post stimulus
Protocol: Male CD-1 mice, weighing 25-35 g were assessed in the Maximal Electroshock induced Seizure (MES) assay. Briefly, mice were dosed with compound (n=12/group) according to the dosing parameters in Table 20 and the latency to induce tonic hind limb extension following transauricular electrical stimulation (50 Hz, 50 mA, 0.8 sec duration, pulse width of 10 ins) was recorded up to 60 seconds post stimulus.

hNaV1.2-WT = biological target: T3, hNaV1.2-WT (Homo sapiens, UniProt Q99250); assay: Voltage step activated sodium current (Peak INa), PatchXpress, HEK-293; format: cell-based; settings: percent inhibition measured at 1 μM; step to 0 mV from half-inactivation holding potential
T3 construct: expressed in transfected cells; host or cells: HEK-293
Protocol: (§1) Functional characterization of exemplary compounds to modulate INa expressed by various human isoforms and disease-causing mutant voltage-gated sodium channels was accomplished using the PatchXpress high throughput electrophysiology platform (Molecular Devices, Sunnyvale, Calif.). HEK-293 cells expressing a recombinant, human NaV1.X sodium channel (either hNaV1.6-WT, hNaV1.6-R223G, hNaV1.6-N984K, hNaV1.6-N1768D, hNaV1.1-WT, hNaV1.2-WT, hNaV1.5-WT, hNaV1.7-WT, or hNaV1.8-WT) were grown in DMEM/high-glucose Dulbecco's modified, 10% FBS, 2 mM sodium pyruvate, 10 mM HEPES and 400 μg/mL G418. Cells were grown to 50%-80% confluency prior to harvesting. Trypsinized cells were washed, allowed to recover for 1 hour and then resuspended in extracellular recording solution at a concentration of 1×10^6 cells/ml. The onboard liquid handling facility of the PatchXpress was used for dispensing cells and applying test compounds. INa amplitude and stability were determined by analyzing the peak current amplitude.
(§2) Peak INa was evoked by depolarizing steps to 0 mV for 20 ms from a holding potential which evoked half-inactivation (e.g., −60 mV) at a frequency of 0.1 Hz. The voltage of half-inactivation was determined for each cell using a 5 sec prepulse to membrane potentials between −120 mV and −20 mV followed immediately by a voltage step to a fully activating membrane voltage (e.g., 0 mV). Following steady state block with exemplary compounds (e.g., as described herein), the degree of inhibition was measured using the average of three consecutive voltage steps. Percent steady-state inhibition of INa was calculated as: [(INa_compound)/(INa_control)]*100, where INa_compound and INa_control represent INa recorded in the presence or absence of compound, respectively.
(§3) In this table, “A” indicates inhibition between less than 0% to 50% and “B” indicates inhibition of greater than 50% and N/A indicates the compound was not tested.

hNaV1.8-WT = biological target: T4, hNaV1.8-WT (Homo sapiens, UniProt Q9Y5Y9); assay: as above; format: cell-based; settings: HEK293; percent inhibition measured at 1 μM; step to 0 mV from half-inactivation holding potential
T4 construct: expressed in transfected cells; host or cells: HEK-293
Protocol: as §1, §2, §3

hNaV1.6-WT = biological target: T5, hNaV1.6-WT (Homo sapiens, UniProt Q9UQD0); assay: as above; format: cell-based; settings: HEK293; percent inhibition measured at 1 μM; step to 0 mV from half-inactivation holding potential
T5 construct: expressed in transfected cells; host or cells: HEK-293
T5 sequence (Q9UQD0 whole entry): as above
Protocol: as §1, §2, §3

hNaV1.1-WT = biological target: T6, hNaV1.1-WT (Homo sapiens, UniProt P35498); assay: as above; format: cell-based; settings: percent inhibition measured at 1 μM; step to 0 mV from half-inactivation holding potential
T6 construct: expressed in transfected cells; host or cells: HEK-293
Protocol: as §1, §2, §3

hNaV1.5-WT = biological target: T7, hNaV1.5-WT (Homo sapiens, UniProt Q14524); assay: as above; format: cell-based; settings: HEK293; percent inhibition measured at 1 μM; step to 0 mV from half-inactivation holding potential
T7 construct: expressed in transfected cells; host or cells: HEK-293
Protocol: as §1, §2, §3

hNaV1.7-WT = biological target: T8, hNaV1.7-WT (Homo sapiens, UniProt Q15858); assay: as above; format: cell-based; settings: HEK293; percent inhibition measured at 1 μM; step to 0 mV from half-inactivation holding potential
T8 construct: expressed in transfected cells; host or cells: HEK-293
T8 sequence (Q15858 whole entry): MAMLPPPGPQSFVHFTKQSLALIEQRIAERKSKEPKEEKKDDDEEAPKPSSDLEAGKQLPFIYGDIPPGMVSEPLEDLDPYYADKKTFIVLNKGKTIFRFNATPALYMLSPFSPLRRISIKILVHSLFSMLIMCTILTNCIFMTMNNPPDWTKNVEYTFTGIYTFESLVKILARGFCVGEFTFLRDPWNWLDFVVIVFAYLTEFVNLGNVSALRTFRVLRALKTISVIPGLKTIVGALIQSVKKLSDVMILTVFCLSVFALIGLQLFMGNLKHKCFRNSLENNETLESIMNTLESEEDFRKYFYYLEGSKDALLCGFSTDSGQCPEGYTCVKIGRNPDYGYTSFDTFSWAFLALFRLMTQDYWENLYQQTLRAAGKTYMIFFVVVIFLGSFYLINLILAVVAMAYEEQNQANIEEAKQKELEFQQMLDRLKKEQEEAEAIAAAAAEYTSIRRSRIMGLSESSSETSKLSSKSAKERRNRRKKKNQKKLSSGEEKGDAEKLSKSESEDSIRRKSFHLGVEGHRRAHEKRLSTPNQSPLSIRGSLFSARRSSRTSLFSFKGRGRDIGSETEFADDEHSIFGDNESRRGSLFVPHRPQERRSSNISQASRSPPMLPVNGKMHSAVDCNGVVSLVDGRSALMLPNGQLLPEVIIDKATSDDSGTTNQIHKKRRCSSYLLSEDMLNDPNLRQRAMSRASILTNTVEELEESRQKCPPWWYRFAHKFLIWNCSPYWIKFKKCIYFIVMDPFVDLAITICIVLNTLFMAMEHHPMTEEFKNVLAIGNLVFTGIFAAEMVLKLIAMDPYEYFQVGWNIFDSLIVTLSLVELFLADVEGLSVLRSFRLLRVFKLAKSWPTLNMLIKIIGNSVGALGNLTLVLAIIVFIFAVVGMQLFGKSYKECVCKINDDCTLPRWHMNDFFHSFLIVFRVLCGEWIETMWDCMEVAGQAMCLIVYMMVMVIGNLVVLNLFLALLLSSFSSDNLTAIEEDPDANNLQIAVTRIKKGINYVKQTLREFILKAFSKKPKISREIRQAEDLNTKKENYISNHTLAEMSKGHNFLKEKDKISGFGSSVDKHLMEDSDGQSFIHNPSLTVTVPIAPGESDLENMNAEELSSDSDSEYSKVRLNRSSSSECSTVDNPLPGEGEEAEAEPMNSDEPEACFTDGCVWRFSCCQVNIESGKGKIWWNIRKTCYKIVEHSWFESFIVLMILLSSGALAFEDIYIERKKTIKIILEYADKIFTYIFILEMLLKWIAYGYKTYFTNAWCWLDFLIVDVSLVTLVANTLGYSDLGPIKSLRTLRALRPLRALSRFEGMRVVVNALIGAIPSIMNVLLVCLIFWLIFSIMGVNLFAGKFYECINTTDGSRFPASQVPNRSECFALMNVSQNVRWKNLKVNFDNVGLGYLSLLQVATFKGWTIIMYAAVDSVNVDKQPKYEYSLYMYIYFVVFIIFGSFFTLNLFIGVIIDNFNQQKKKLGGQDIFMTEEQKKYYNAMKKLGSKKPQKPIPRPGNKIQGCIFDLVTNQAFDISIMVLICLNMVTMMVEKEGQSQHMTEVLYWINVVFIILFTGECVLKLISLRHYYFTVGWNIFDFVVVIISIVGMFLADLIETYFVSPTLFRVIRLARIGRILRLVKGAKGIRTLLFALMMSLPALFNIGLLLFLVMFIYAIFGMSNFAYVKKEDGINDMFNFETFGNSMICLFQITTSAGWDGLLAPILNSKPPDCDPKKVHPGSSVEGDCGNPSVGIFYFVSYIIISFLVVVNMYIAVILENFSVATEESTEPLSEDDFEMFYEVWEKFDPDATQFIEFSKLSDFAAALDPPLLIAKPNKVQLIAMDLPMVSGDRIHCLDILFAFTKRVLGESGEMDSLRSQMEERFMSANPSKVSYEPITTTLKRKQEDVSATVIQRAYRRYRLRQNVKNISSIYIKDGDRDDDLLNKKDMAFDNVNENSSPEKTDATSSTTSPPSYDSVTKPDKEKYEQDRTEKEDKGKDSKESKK
Protocol: as §1, §2, §3

hNaV1.6-R223G = biological target: T9, hNaV1.6-R223G (Homo sapiens, UniProt Q9UQD0, R223G); assay: Voltage ramp activated sodium current (Ramp INa), PatchXpress, HEK-293; format: cell-based; settings: HEK293; percent inhibition of enhanced ramp current at 1 μM; +600 mv/sec ramp from −100 mV to +20 mV
T9 construct: expressed in transfected cells; host or cells: HEK-293
T9 sequence (Q9UQD0 whole entry R223G): as the sequence (Q9UQD0 whole entry) above, with R223G counted along it
Protocol: as §1
(§4) The Nav1.6 mutant channels (hNaV1.6-R223G, hNaV1.6-N984K, hNaV1.6-N1768D) express an enhanced sodium current in response to a ramp voltage depolarization when compared to the wild-type hNaV1.6-WT. This enhanced, depolarizing ramp current is thought to contribute to enhanced neuronal excitability. The degree of block with exemplary compounds (e.g., as described herein) was measured using a +600 mv/sec voltage ramp from −100 mV to +20 mV. The ramp current was defined as the area of the current measured between −55 mV and +15 mV. Following steady state block with exemplary compounds (e.g., as described herein) at 1 μM, a Na^+ free solution containing an impermeant cation (e.g., Choline or NMDG) was added for determination of the baseline current level for offline subtraction. Percent inhibition of enhanced ramp current was calculated as (compound−baseline)/(control−baseline)*100, where control represents the ramp current recorded in the absence of compound. In this table, “A” indicates inhibition between less than 0% to 50% and “B” indicates inhibition of greater than 50% and N/A indicates the compound was not tested.

hNaV1.6-N1768D = biological target: T10, hNaV1.6-N1768D (Homo sapiens, UniProt Q9UQD0, N1768D); assay: as above; format: cell-based; settings: HEK293; percent inhibition of enhanced ramp current at 1 μM; +600 mv/sec ramp from −100 mV to +20 mV
T10 construct: expressed in transfected cells; host or cells: HEK-293
T10 sequence (Q9UQD0 whole entry N1768D): as the sequence (Q9UQD0 whole entry) above, with N1768D counted along it
Protocol: as §1, §4

hNaV1.6-N984K = biological target: T11, hNaV1.6-N984K (Homo sapiens, UniProt Q9UQD0, N984K); assay: as above; format: cell-based; settings: HEK293; percent inhibition of enhanced ramp current at 1 μM; +600 mv/sec ramp from −100 mV to +20 mV
T11 construct: expressed in transfected cells; host or cells: HEK-293
T11 sequence (Q9UQD0 whole entry N984K): as the sequence (Q9UQD0 whole entry) above, with N984K counted along it
Protocol: as §1, §4

[2] = 1 mg/kg PO, pre-treatment 30 min
[3] = 3 mg/kg PO, pre-treatment 30 min
[4] = 10 mg/kg PO, pre-treatment 30 min

SMILES	inhibition at 1 µM (human NaV1.6 (hNaV1.6))	inhibition at 1 µM [1]	hNav1.2 Peak INa (hNaV1.2-WT)	inhibition at 1 µM (hNaV1.8-WT)	inhibition at 1 µM (hNaV1.6-WT)	hNav1.1 Peak INa (hNaV1.1-WT)	inhibition at 1 µM (hNaV1.7-WT)	inhibition at 1 µM (hNaV1.6-R223G)	inhibition at 1 µM (hNaV1.6-N1768D)	inhibition at 1 µM (hNaV1.6-N984K)	Mean latency to tonic extension (Male CD-1 mice; [2])	Mean latency to tonic extension (Male CD-1 mice; [3])	Mean latency to tonic extension (Male CD-1 mice; [4])	inhibition at 1 µM (hNaV1.5-WT)	Mean latency to tonic extension (Male CD-1 mice; 1 mg/kg PO, pre-treatment 120 min)	Mean latency to tonic extension (Male CD-1 mice; 3 mg/kg PO, pre-treatment 120 min)
CCOC(F)(F)c1nnc2ccc(-c3cnc(OCC(F)(F)F)c(F)c3)nn12 [Compound 16, 3-[ethoxy(difluoro)methyl]-6-[5-fluoro-6-(2,2,2-trifluoroethoxy)-3-pyridyl]-[1,2,4]triazolo[4,3-b]pyridazine]	> 70%	> 70%	–	–	–	–	–	–	–	–	–	–	–	–	–	–
COC(F)(F)c1nnc2cnc(-c3cnc(OCC(F)(F)F)c(F)c3)cn12 [Compound 53, 3-[difluoro(methoxy)methyl]-6-[5-fluoro-6-(2,2,2-trifluoroethoxy)-3-pyridyl]-[1,2,4]triazolo[4,3-a]pyrazine]	> 70%	> 70%	A (inhibition between less than 0% to 50%)	> 50%	> 50%	B (inhibition of greater than 50%)	> 50%	< 50%	> 50%	< 50%	36.4 s	60 s	60 s	> 50%	–	–
COCc1nnc2cnc(-c3cnc(OC(C)(C)C(F)(F)F)c(F)c3)cn12 [Compound 48]	> 70%	–	–	> 50%	> 50%	–	> 50%	< 50%	> 50%	< 50%	–	42.5 s	60 s	> 50%	–	–
COC(F)(F)c1nnc2cnc(-c3cnc(OC4(C(F)(F)F)CCC4)c(F)c3)cn12 [Compound 11, 3-[difluoro(methoxy)methyl]-6-[5-fluoro-6-[1-(trifluoromethyl)cyclobutoxy]-3-pyridyl]-[1,2,4]triazolo[4,3-a]pyrazine]	> 70%	–	–	> 50%	> 50%	B (inhibition of greater than 50%)	> 50%	< 50%	> 50%	> 50%	–	–	–	> 50%	–	–
CCOC(F)(F)c1nnc2ccc(-c3cnc(OCC(F)(F)F)c(F)c3)cn12 [Compound 3, 3-[ethoxy(difluoro)methyl]-6-[5-fluoro-6-(2,2,2-trifluoroethoxy)-3-pyridyl]-[1,2,4]triazolo[4,3-a]pyridine]	> 70%	–	–	> 50%	> 50%	B (inhibition of greater than 50%)	> 50%	> 50%	> 50%	> 50%	–	60 s	60 s	> 50%	–	–

Second part, led by results:

inhibition at 1 µM (human NaV1.6 (hNaV1.6))	inhibition at 1 µM [1]	hNav1.2 Peak INa (hNaV1.2-WT)	inhibition at 1 µM (hNaV1.8-WT)	inhibition at 1 µM (hNaV1.6-WT)	hNav1.1 Peak INa (hNaV1.1-WT)	inhibition at 1 µM (hNaV1.7-WT)	inhibition at 1 µM (hNaV1.6-R223G)	inhibition at 1 µM (hNaV1.6-N1768D)	inhibition at 1 µM (hNaV1.6-N984K)	SMILES	Mean latency to tonic extension (Male CD-1 mice; [2])	Mean latency to tonic extension (Male CD-1 mice; [3])	Mean latency to tonic extension (Male CD-1 mice; [4])	inhibition at 1 µM (hNaV1.5-WT)	Mean latency to tonic extension (Male CD-1 mice; 1 mg/kg PO, pre-treatment 120 min)	Mean latency to tonic extension (Male CD-1 mice; 3 mg/kg PO, pre-treatment 120 min)
> 70%	> 70%	B (inhibition of greater than 50%)	> 50%	> 50%	B (inhibition of greater than 50%)	> 50%	> 50%	> 50%	> 50%	COC(F)(F)c1nnc2cnc(-c3ccc(O[C@@H](C)C(F)(F)F)nc3)cn12 [Compound 59, 3-[difluoro(methoxy)methyl]-6-[6-[(1S)-2,2,2-trifluoro-1-methyl-ethoxy]-3-pyridyl]-[1,2,4]triazolo[4,3-a]pyrazine]	–	–	–	> 50%	–	–
> 70%	> 70%	B (inhibition of greater than 50%)	> 50%	> 50%	B (inhibition of greater than 50%)	> 50%	< 50%	> 50%	> 50%	COC(F)(F)c1nnc2cnc(-c3ccc(OC(C)(C)C(F)(F)F)nc3)cn12 [Compound 56, 3-[difluoro(methoxy)methyl]-6-[6-(2,2,2-trifluoro-1,1-dimethyl-ethoxy)-3-pyridyl]-[1,2,4]triazolo[4,3-a]pyrazine]	–	–	–	> 50%	–	–
> 70%	> 70%	B (inhibition of greater than 50%)	> 50%	> 50%	B (inhibition of greater than 50%)	> 50%	< 50%	> 50%	> 50%	COC(F)(F)c1nnc2cnc(-c3ccc(O[C@H](C)C(F)(F)F)nc3)cn12 [Compound 62, 3-[difluoro(methoxy)methyl]-6-[6-[(1R)-2,2,2-trifluoro-1-methyl-ethoxy]-3-pyridyl]-[1,2,4]triazolo[4,3-a]pyrazine]	17.6 s	46.1 s	–	> 50%	–	–
> 70%	–	B (inhibition of greater than 50%)	> 50%	> 50%	B (inhibition of greater than 50%)	> 50%	> 50%	> 50%	> 50%	COC(F)(F)c1nnc2cnc(-c3cnc(O[C@@H](C)C(F)(F)F)c(F)c3)cn12 [Compound 6B, 3-[difluoro(methoxy)methyl]-6-[5-fluoro-6-[(1S)-2,2,2-trifluoro-1-methyl-ethoxy]-3-pyridyl]-[1,2,4]triazolo[4,3-a]pyrazine]	–	–	–	> 50%	17.3 s	50.5 s
